Target: 5'-nucleotidase (Homo sapiens, UniProt P21589)
Assay: Enzyme Activity In Vitro Assay: I. Experimental Materials and Equipment1. Malachite green phosphate detection kit (R & D Systems, Cat #, DY996)2. Recombinant human 5′-nucleotidase (CD73) (R & D Systems, Cat #, 5795-EN)3. HEPES buffer (Gibco, Cat #, 15630-080)4. CMP (Sigma, Cat #, C1006)5. DMSO (Fisher Chemical, Cat #, D128-1)6. NaCl 5M (Boston Bioproducts, Cat #, BM-244)7.384-well plate (Fisher, Cat #, 5795-EN)8. TECAN plate reader (TECAN)II. Experimental ProcedureCompounds are first dissolved in DMSO to 10 mM as a stock solution. When determining the IC50 of the compound, prepare 3-fold serial dilutions with a highest concentration of 125 μM for a total of 12 concentration points and ensure each dilution containing equal amount of DMSO. In each well of 384-well plate, 0.34 nM of recombinant human 5′-nucleotidase (CD73) was pre-incubated at 37° C. for 2 hours with the compounds tested in assay buffer containing 20 mM HEPES buffer (pH 7.4), 137 mM NaCl, 0.001% Tween 20. The final reaction volume of the reaction in each well was 12 μL. The highest concentration of compound was 125 μM and the DMSO concentration was 1.25%. After pre-incubation, 3 μL of CMP dissolved in assay buffer was added to each reaction. The final CMP concentration was 45 μM. The reaction was incubated at 37° C. for 15 minutes. Then 3 μL of Malachite Green Reagent A was added to each reaction. […]

Chain of 5'-nucleotidase (P21589 whole entry): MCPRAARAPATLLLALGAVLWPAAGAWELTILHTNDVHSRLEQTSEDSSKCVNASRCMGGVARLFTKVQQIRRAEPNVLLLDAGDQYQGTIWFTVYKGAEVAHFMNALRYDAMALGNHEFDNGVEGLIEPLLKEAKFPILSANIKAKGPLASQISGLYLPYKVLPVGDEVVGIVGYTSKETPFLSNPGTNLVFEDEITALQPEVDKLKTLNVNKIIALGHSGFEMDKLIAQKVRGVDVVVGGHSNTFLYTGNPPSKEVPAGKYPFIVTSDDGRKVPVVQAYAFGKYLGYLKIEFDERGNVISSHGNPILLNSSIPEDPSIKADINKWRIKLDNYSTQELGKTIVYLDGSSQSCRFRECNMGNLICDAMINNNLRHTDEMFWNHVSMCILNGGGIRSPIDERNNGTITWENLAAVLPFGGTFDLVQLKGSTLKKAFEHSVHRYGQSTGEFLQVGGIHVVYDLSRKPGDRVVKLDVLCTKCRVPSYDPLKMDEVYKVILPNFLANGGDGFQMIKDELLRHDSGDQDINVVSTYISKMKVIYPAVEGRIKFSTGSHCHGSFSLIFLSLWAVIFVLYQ

- IC50: 270 nM
SMILES: CC(OC(=O)C(C)(C)C)OP(=O)(COC[C@H]1O[C@@H](n2ncc3c(N4CC5(CCc6ccccc65)C4)nc(Cl)nc32)[C@H](O)[C@@H]1O)OC(C)OC(=O)C(C)(C)C (stereo partly specified)

Source: ChEMBL document CHEMBL5729111, “CD73 inhibitors and therapeutic uses thereof” (2022)
